Source: patent US6844353B2, “Fungicidal properties of sampangine and its analogs to agriculturally important fungal plant pathogens” (The United States of America as represented by the …, priority 2003, dated 2005)
Like-named read-outs stand apart in the source and are kept apart here.

Key:
[1] = test system: C. fragariae isolate CF-75; test: Detached strawberry leaf assay; assay type: in vivo, Colletotrichum fragariae; settings: detached strawberry leaves (cultivar Chandler), five days after application
From the text: Strawberry plants of the cultivar Chandler were maintained in a warm greenhouse under conditions suitable for optimum vegetative growth. The youngest fully expanded leaf with the entire petiole from each plant was collected. The petiole of each leaf was inserted into a small test tube (10×4 mm) and filled with sterile distilled water. The left leaflet of each leaf was inoculated with C. fragariae isolate CF-75 (1.5×10^6 conidia/ml) using a hand pump sprayer. The inoculated leaves were placed in a dew chamber and incubated overnight at 30° C. and 100% relative humidity, removed from the dew chamber and allowed to dry. The test compound was applied using a chromatography sprayer until the upper surface of each leaflet was coated. After allowing the leaves to air dry for 2 hours, the right leaflet of each leaf was inoculated with C. fragariae isolate CF-75. The leaves were incubated in the dew chamber at 30° C. and 100% relative humidity for 48 hours. The leaves were then removed from the dew chamber and held in a moist chamber for 3 days (total of five days since test compounds were applied). The number of lesions on each leaflet were then counted.

C. acutatum = test: 96-well microtiter plate assay, fungal growth inhibition; assay type: cell-based, Colletotrichum acutatum; settings: Colletotrichum acutatum, read-out: Percent inhibition−Percent Stimulation±SEM
From the text: (§1) Pathogen production. Isolates of Colletotrichum acutatum Simmonds, Colletotrichum fragariae Brooks, and Colletotrichum gloeosporioides (Penz.) Penz. & Sacc. in Penz. were obtained from B. J. Smith, USDA, ARS, Small Fruit Research Station, Poplarville, Miss. Colletotrichum fragariae (isolate CF63), C. acutatum (isolate CAGoff), and C. gloeosporioides (isolate CG162) were used for all pathogen and bioautography studies. Isolate CF63 is one of the most virulent isolates at infecting strawberry plants and inducing both crown and fruit rot (Smith and Black, 1990). CF63, CAGoff, and CG162 were used as standard test isolates because of our extensive knowledge of these isolates and their known fungicide sensitivity profiles in both bioautography and microtiter formats. The three Colletotrichum species were isolated from strawberry (Fragaria x ananassa Duchesne). Botrytis cinerea Pers.: Fr, was isolated from commercial grape (Vitis vinifera L.) and Fusarium oxysporum Schlechtend: Fr from orchid (Cynoches sp.). Phomopsis viticola (Sacc.) and P. obscurans (Ellis & Everh.) Sutton were from Mike A. Ellis, Ohio State University, Wooster, Ohio. Fungi were grown on potato-dextrose agar (PDA, Difco, Detroit, Mich.) in 9 cm petri dishes and incubated in a growth chamber at 24±2° C. and under cool-white fluorescent lights ([…]·m^−2·sec^−1 light) with 12 hour photoperiod.
(§2) Inoculum preparation. Conidia were harvested from 7-10 day-old cultures by flooding plates with 5 mL of sterile distilled water and dislodging conidia by softly brushing the colonies with an L-shaped glass rod. Conidial suspensions were filtered through sterile miracloth (Calbiochem-Novabiochem Corp., La Jolla, Calif.) to remove mycelia. Conidia concentrations were determined photometrically, from a standard curve based on the percent of transmittance (% T) at 625 nm and suspensions were then adjusted with sterile distilled water to a concentration of 1.0×10^6 conidia/mL.
(§3) Microtiter assay. A standardized 96-well microtiter plate assay developed for discovery of natural product fungicidal agents was used to evaluate naturally occurring antifungal agents from Macaranga monanara. A 96-well microtiter assay was used to determine sensitivity of B. cinerea, C. acutatum, C. fragariae, C. gloeosporioides, F. oxysporum, Phomopsis viticola, and P. obscurans to the various antifungal agents in comparison with known fungicidal standards. Vinclozolin, captan, and thiabendazole, which represent three different modes of action, were used as standards in this experiment. Each fungus was challenged in a dose-response format using test compounds where the final treatment concentrations were 0.3, 3.0 and 30.0 μM. Microtiter plates (Nunc MicroWell, untreated; Roskilde, Denmark) were covered with a plastic lid and incubated in a growth chamber as described previously for fungal growth. Growth was then evaluated by measuring absorbance of each well at 620 nm using a microplate photometer (Packard Spectra Count, Packard Instrument Co., Downers Grove, Ill.). Microtiter plates (Nunc MicroWell, untreated; Roskilde, Denmark) were covered with a plastic lid and incubated in a growth chamber at 24±1° C. and 12 hour photoperiod under 60±5 μmol light. Growth was then evaluated by measuring absorbance of each well at 620 nm using a microplate photometer (Packard Spectra Count, Packard Instrument Co., Downers Grove, Ill.).
(§4) Microbioassy Experimental Design. Chemical sensitivity each of B. cinerea, C. acutatum, C. fragariae, C. gloeosporiodes, F. oxysporum, Phomopsis viticola, and P. obscurans was evaluated using 96-well plate microbioassay format. Each chemical was evaluated in duplicate at each dose (0.3, 3.0 and 30.0 μM). […]

C. gloeosporioides = test: as above; assay type: cell-based, Colletotrichum gloeosporioides; settings: Colletotrichum gloeosporioides, read-out: Percent inhibition−Percent Stimulation±SEM
From the text: as §1, §2, §3, §4

C. fragariae = test: as above; assay type: cell-based, Colletotrichum fragariae; settings: Colletotrichum fragariae, read-out: Percent inhibition−Percent Stimulation±SEM
From the text: as §1, §2, §3, §4

B. cinerea = test: as above; assay type: cell-based, Botrytis cinerea; settings: Botrytis cinerea, read-out: Percent inhibition−Percent Stimulation±SEM
From the text: as §1, §2, §3, §4

F. oxysporum = test: as above; assay type: cell-based, Fusarium oxysporum; settings: Fusarium oxysporum, read-out: Percent inhibition−Percent Stimulation±SEM
From the text: as §1, §2, §3, §4

In the case of `CO/C=C(/C(=O)OC)c1ccccc1Oc1cc(Oc2ccccc2C#N)ncn1` [Azoxystrobin], the “Disease severity scores (# disease lesions)” value (from here on “Disease severity scores”) ([1]; Concentration 625 (unit not given)) is reported as 4.46, the “Disease severity scores” value ([1]; Concentration 1250 (unit not given)) is reported as 1.58 and the “Disease severity scores” value ([1]; Concentration 2500 (unit not given)) is reported as 3.54.
`CC(C)NC(=O)N1CC(=O)N(c2cc(Cl)cc(Cl)c2)C1=O` [Iprodione] gave an inhibition at 0.3 µM (C. acutatum; 48 h) of -26.4 ± 10.7%, an inhibition at 3 µM (C. acutatum; 48 h) of -18.1 ± 3.2% and an inhibition at 30 µM (C. acutatum; 48 h) of -27.9 ± 5.5%. For the same compound, the inhibition at 0.3 µM (C. acutatum; 72 h) was -26.8 ± 9.9%, the inhibition at 3 µM (C. acutatum; 72 h) was -10.7 ± 3.1% and the inhibition at 30 µM (C. acutatum; 72 h) was -64.8 ± 4%. It also gave an inhibition at 0.3 µM (C. gloeosporioides; 48 h) of -33.4 ± 10.1%, an inhibition at 3 µM (C. gloeosporioides; 48 h) of -49.6 ± 8.4% and an inhibition at 30 µM (C. gloeosporioides; 48 h) of 23.4 ± 9.1%. For the same compound, the inhibition at 0.3 µM (C. gloeosporioides; 72 h) was -17.5 ± 6.7%, the inhibition at 3 µM (C. gloeosporioides; 72 h) was -30.7 ± 4% and the inhibition at 30 µM (C. gloeosporioides; 72 h) was -17.4 ± 7.9%. The inhibition at 0.3 µM (C. fragariae; 48 h) was -36.4 ± 12.3%, the inhibition at 3 µM (C. fragariae; 48 h) was -42.6 ± 10.4% and the inhibition at 30 µM (C. fragariae; 48 h) was -63.2 ± 10.7%. For the same compound, the inhibition at 0.3 µM (C. fragariae; 72 h) was -17.1 ± 3.6%, the inhibition at 3 µM (C. fragariae; 72 h) was -24 ± 4.6% and the inhibition at 30 µM (C. fragariae; 72 h) was -57.7 ± 12%. The inhibition at 0.3 µM (B. cinerea; 48 h) was -10.4 ± 11.1%, the inhibition at 3 µM (B. cinerea; 48 h) was 34.2 ± 29.1% and the inhibition at 30 µM (B. cinerea; 48 h) was 38.1 ± 29.3%. The inhibition at 0.3 µM (B. cinerea; 72 h) was 28.3 ± 27.9%, the inhibition at 3 µM (B. cinerea; 72 h) was 43.3 ± 20.5% and the inhibition at 30 µM (B. cinerea; 72 h) was 41.3 ± 20.6%. For the same compound, the inhibition at 0.3 µM (F. oxysporum; 48 h) was 1.8 ± 2.6%, the inhibition at 3 µM (F. oxysporum; 48 h) was 8.3 ± 3.1% and the inhibition at 30 µM (F. oxysporum; 48 h) was 7.7 ± 4.6%. For the same compound, the inhibition at 0.3 µM (F. oxysporum; 72 h) was -2.3 ± 3%, the inhibition at 3 µM (F. oxysporum; 72 h) was -4.1 ± 4% and the inhibition at 30 µM (F. oxysporum; 72 h) was -11.2 ± 5.3%.
